Results on 15 compounds are retold here after ChEMBL document CHEMBL5442168, “ASAP - In vitro liver microsomal stability” (2024).

Where “and” joins values, the source holds several entries; their conditions need not be identical. Identical values can stand only once.

Data set [1] is described as follows: Human liver microsomal stability of compound in microsomal protein, PBS buffer pH 7.4, NADPH, glucose-6-phosphate and glucose-6-phosphate dehydrogenase media. Aliquotes were taken at 5 time points and after stopping the reaction, supernatants were analyzed using HPLC coupled with a tandem mass spectrometer. The elimination constant, half-life, and intrinsic clearance are determined as results using linear regression analysis. The assay has been performed by Enamine biological services, Bienta Ltd.The protocol is publicly available: dx.doi.org/10.17504/protocols.io.5qpvokdb9l4o/v1. It counts as ADME, microsomes, Microsome. To be noted: for half-life / microsomal CLint: liver microsomes; for Remaining / Remaining (without cofactor) / CLint / T1/2: microsomes. (In general: Liver microsomes are a subcellular fraction often used to study metabolism.)

Data set [2] in a line: Mouse liver microsomal stability of compound in microsomal protein, PBS buffer pH 7.4, NADPH, glucose-6-phosphate and glucose-6-phosphate dehydrogenase media. Aliquotes were taken at 5 time points and after stopping the reaction, supernatants were analyzed using HPLC coupled with a tandem mass spectrometer. The elimination constant, half-life, and intrinsic clearance are determined as results using linear regression analysis. The assay has been performed by Enamine biological services, Bienta Ltd.The protocol is publicly available: dx.doi.org/10.17504/protocols.io.5qpvokdb9l4o/v1. It counts as ADME, microsomes, Microsome. To be noted: for half-life / microsomal CLint: liver microsomes; for Remaining / Remaining (without cofactor) / CLint / T1/2: microsomes.

By half-life is commonly meant how long it takes for the measured level to halve. What is called microsomal CLint is a measure of how fast metabolising enzymes remove a compound, apart from limits set by blood flow. A higher microsomal CLint goes with faster metabolism.
For Remaining (without cofactor) in this document: time not given here.
For Remaining in this document: time not given here.

On to `CC(C)[C@H](Nc1ncnc2[nH]cc(C(=O)NC3CC3)c12)c1ccc2c(c1)S(=O)(=O)CCC2`, for which, in data set [1], the half-life came to 320 min, the microsomal CLint is 5 µL/min/mg, the Remaining was found to be 90% and the “Remaining (without cofactor)” value is recorded as 112%. In data set [2], the half-life was 39.5 min, the microsomal CLint was determined as 42 µL/min/mg, the Remaining came to 50% and the “Remaining (without cofactor)” value worked out at 102%.

Turning to `CCNC(=O)c1cc2c(N[C@@H](c3ccc4c(c3)S(=O)(=O)CCO4)C(C)C)ncnc2[nH]1`, in data set [1], the half-life stood at 26.2 min, the microsomal CLint amounted to 64 µL/min/mg, the Remaining is given as 33% and the “Remaining (without cofactor)” value came out at 95%. In data set [2], the half-life is 65.5 min, the microsomal CLint was 26 µL/min/mg, the Remaining amounted to 66% and the “Remaining (without cofactor)” value is listed as 99%.

As to `CNC(=O)c1c[nH]c2ncnc(N[C@@H](c3ccc4c(c3)NC(=O)CO4)C(C)C)c12`, in data set [1], the half-life was determined as 19.5 min, the intrinsic metabolic clearance (microsomal CLint) was found to be 86 µL/min/mg, the Remaining was determined as 23% and the “Remaining (without cofactor)” value is reported as 98%. In addition, in data set [2], the half-life turned out to be 14.8 min, the microsomal CLint was found to be 113 µL/min/mg, the Remaining is recorded as 16% and the “Remaining (without cofactor)” value is 95%.

As for `CC(C)[C@@H](Nc1ncnc2[nH]c(-c3cnn(C)c3)cc12)c1ccc2c(c1)S(=O)(=O)CCC2`, in data set [1], the CLint was 141 µL/min/mg and 405 µL/min/mg; the Remaining is 10% and 0%; the “Remaining (without cofactor)” value is 102% and 105%; the T1/2 is 11.9 min and 4.1 min. In data set [2], the half-life is 10.8 min; the microsomal CLint is 155 µL/min/mg; the CLint was found to be 140 µL/min/mg; the Remaining was 7% and 10%. Further, in data set [2], the “Remaining (without cofactor)” value was 102% and the T1/2 is 11.9 min.

As to `CC(C)[C@@H](Nc1ncnc2[nH]c(-c3cnn(CC(N)=O)c3)cc12)c1ccc2c(c1)NC(=O)CO2`, in data set [1], the half-life came out at 99.2 min, the intrinsic clearance (microsomal CLint) amounted to 17 µL/min/mg, the Remaining is on record as 73% and the “Remaining (without cofactor)” value is 91%. In addition, in data set [2], the half-life stood at 156 min, the microsomal CLint was determined as 11 µL/min/mg, the Remaining is 84% and the “Remaining (without cofactor)” value turned out to be 102%.

Regarding `COc1ccc([C@@H](CC(=O)O)NC(=O)c2ncnc3[nH]ccc23)cc1`, in data set [1], the half-life stood at 240 min, the microsomal CLint was 7 µL/min/mg, the Remaining turned out to be 87% and the “Remaining (without cofactor)” value was found to be 88%. In data set [2], the half-life stood at 686 min, the microsomal CLint came out at 2 µL/min/mg, the Remaining came to 94% and the “Remaining (without cofactor)” value is 96%.

Regarding `COc1ccc([C@@H](Cc2nnn[nH]2)NC(=O)c2ncnc3[nH]ccc23)cc1`, in data set [1], the half-life is 314 min, the intrinsic metabolic clearance (microsomal CLint) was determined as 5 µL/min/mg, the Remaining amounted to 86% and the “Remaining (without cofactor)” value came out at 110%. In data set [2], the half-life was 4400 min, the Remaining is reported as 96% and the “Remaining (without cofactor)” value was found to be 93%.

For `CC(C)[C@H](Nc1ncnc2[nH]c(-c3cnn(C)c3C#N)cc12)c1ccc2c(c1)S(=O)(=O)CCC2`, in data set [1], the half-life was 1.8 min, the microsomal CLint amounted to 935 µL/min/mg, the Remaining is 0% and the “Remaining (without cofactor)” value is listed as 101%. In data set [2], the half-life is 5.4 min, the intrinsic clearance (microsomal CLint) is 311 µL/min/mg, the Remaining was found to be 1% and the “Remaining (without cofactor)” value was 90%.

In the case of `CC(C)[C@H](Nc1ncnc2[nH]c(-c3cnn(C)c3C#N)cc12)c1ccc2c(n1)OCCO2`, in data set [1], the half-life came to 100 min, the microsomal CLint is 17 µL/min/mg, the Remaining is given as 78% and the “Remaining (without cofactor)” value stood at 116%. Besides, in data set [2], the half-life was 20.7 min, the microsomal CLint was 81 µL/min/mg, the Remaining came out at 27% and the “Remaining (without cofactor)” value is on record as 96%.

Regarding `CC(C)[C@@H](Nc1ncnc2[nH]c(-c3cnn(C)c3C#N)cc12)c1ccc2c(c1)NC(=O)CO2`, in data set [1], the half-life stood at 16.6 min; the intrinsic clearance (microsomal CLint) turned out to be 100 µL/min/mg; the CLint was found to be 52 µL/min/mg; the Remaining was 18% and 44%. Besides, in data set [1], the “Remaining (without cofactor)” value is 93% and 109%; the T1/2 amounted to 32.3 min. Besides, in data set [2], the half-life came out at 9.4 min; the microsomal CLint was 177 µL/min/mg; the CLint stood at 147 µL/min/mg; the Remaining was 6% and 10%. In addition, in data set [2], the “Remaining (without cofactor)” value is 97% and 102%; the T1/2 is 11.3 min.

With `CC(C)[C@@H](Nc1ncnc2[nH]cc(C(N)=O)c12)c1ccc2c(c1)OCCO2`, in data set [1], the half-life worked out at 11.7 min, the microsomal CLint was 143 µL/min/mg, the Remaining turned out to be 9% and the “Remaining (without cofactor)” value is 110%. Moreover, in data set [2], the half-life is 11.7 min, the microsomal CLint was determined as 142 µL/min/mg, the Remaining is 9% and the “Remaining (without cofactor)” value was 98%.

For `CC(C)[C@@H](Nc1ncnc2[nH]c(C(=O)N[C@H]3CCN(C)C3)cc12)c1ccc2c(c1)S(=O)(=O)CCC2`, in data set [1], the half-life was found to be 64 min, the intrinsic metabolic clearance (microsomal CLint) worked out at 26 µL/min/mg, the Remaining came to 66% and the “Remaining (without cofactor)” value came to 107%. Further, in data set [2], the half-life was 434 min, the intrinsic metabolic clearance (microsomal CLint) was 4 µL/min/mg, the Remaining is 92% and the “Remaining (without cofactor)” value was 92%.

On to `CNC(=O)c1c[nH]c2ncnc(N[C@H](c3ccc4c(c3)S(=O)(=O)CCC4)C(C)C)c12`, for which, in data set [1], the half-life came to 6.5 min, the microsomal CLint was 258 µL/min/mg, the Remaining was determined as 1% and the “Remaining (without cofactor)” value amounted to 94%. In data set [2], the half-life was 2.2 min, the microsomal CLint came out at 770 µL/min/mg, the Remaining came to 0% and the “Remaining (without cofactor)” value is on record as 99%.

Take `COc1ccc([C@@H](NC(=O)c2[nH]cnc3nccc2-3)C(C)c2nnn[nH]2)cc1` (stereo not given in full): in data set [1], the half-life came to 799 min, the microsomal CLint turned out to be 2 µL/min/mg, the Remaining came to 92% and the “Remaining (without cofactor)” value turned out to be 103%. In data set [2], the half-life amounted to 2880 min, the microsomal CLint worked out at 1 µL/min/mg, the Remaining is reported as 99% and the “Remaining (without cofactor)” value is reported as 92%.

As for `COc1ccc([C@H](Cc2nnn[nH]2)NC(=O)c2ncnc3[nH]ccc23)cc1`, in data set [1], the half-life came out at 1090 min, the microsomal CLint turned out to be 2 µL/min/mg, the Remaining was 105.597% and the “Remaining (without cofactor)” value turned out to be 84.68%. Also, in data set [2], the half-life amounted to 206 min, the microsomal CLint amounted to 7 µL/min/mg, the Remaining is listed as 115.387% and the “Remaining (without cofactor)” value was found to be 100.411%.
